Legend:
physchem [1] = conditions: buffer
physchem [2] = conditions: octanol/water, pH 7.4

SMILES	solubility (physchem [1]) [µM]	logD (physchem [2])
O=C(OCc1cc2c(cc1Cl)OCO2)N1CCC(n2c(O)nc3ccccc32)CC1	< 10	4.2
O=C(OCc1cccc(Oc2ccccc2)c1)N1CCC2(CC1)C(=O)NCN2c1ccccc1	< 10	> 4
O=C(OC1CCc2ccccc21)N1CCC2(CC1)C(=O)NCN2c1ccccc1 (stereo not drawn)	< 10	> 4
O=C(NCCCn1c(=O)[nH]c2ccccc21)OCc1cc2c(cc1Cl)OCO2	< 10	> 4

Reference: ChEMBL document CHEMBL1134447 (J Med Chem, 2001)
